In ChEMBL document CHEMBL1128282 (J Med Chem, 1995):
The source made the active and inactive calls. The calls are words filed in the database; no cut-off is given here.

Experiments:
Xenopus laevis [1] = organism: Xenopus laevis; assay: Pigment aggregation response in Xenopus laevis Melanophores at 10e-5 M of concentration; Antagonist; type: functional; conditions: filed as antagonist
Melatonin receptor [2] = target: T1, Melatonin receptor (Gallus gallus, UniProt P49288+P51050+P49285); assay: Binding affinity in chicken brain membranes by using [2-125I]melatonin in a competition radioligand binding assay; type: cell membranes, Membrane
Xenopus laevis [3] = organism: Xenopus laevis; assay: Pigment aggregation response in Xenopus laevis Melanophores at 10e-5 M of concentration; Agonist; type: functional; conditions: filed as agonist
Xenopus laevis [4] = organism: Xenopus laevis; assay: Pigment aggregation response in Xenopus laevis Melanophores at 10e-8 M of concentration; Agonist response; type: functional; conditions: filed as agonist
Xenopus laevis [5] = organism: Xenopus laevis; assay: Pigment aggregation response in Xenopus laevis Melanophores at 10e-6 M of concentration; Agonist; type: functional; conditions: filed as agonist
Xenopus laevis [6] = organism: Xenopus laevis; assay: Pigment aggregation response in Xenopus laevis Melanophores at 10e-5 M of concentration; No Agonist/antagonist response; type: functional
Melatonin receptor [7] = target: T1, Melatonin receptor; assay: Binding affinity in chicken brain membranes by using [2-125I]melatonin in a competition radioligand binding assay.; type: cell membranes, Membrane
Xenopus laevis [8] = organism: Xenopus laevis; assay: Pigment aggregation response in Xenopus laevis Melanophores; Antagonist; type: functional; conditions: filed as antagonist
Xenopus laevis [9] = organism: Xenopus laevis; assay: Pigment aggregation response in Xenopus laevis Melanophores at 10e-7 M of concentration; Agonist; type: functional; conditions: filed as agonist
Xenopus laevis [10] = organism: Xenopus laevis; assay: Pigment aggregation response in Xenopus laevis Melanophores at 10e-5 M of concentration; No Agonist response; type: functional
Xenopus laevis [11] = organism: Xenopus laevis; assay: Pigment aggregation response in Xenopus laevis Melanophores at 10e-5 M of concentration; No agonist response; type: functional

Row | SMILES | Ki (Melatonin receptor [2]) [nM] | Response (Xenopus laevis [5]) | also measured
1 | Cn1c(-c2ccccc2)c(CCNC(=O)C2CCC2)c2ccccc21 | 726 |  | Response (Xenopus laevis [1]): Antagonist
2 | CCn1c(-c2ccccc2)c(CCNC(C)=O)c2ccccc21 | 154 |  | Response (Xenopus laevis [3]): Agonist
3 | COc1ccc2[nH]c(-c3ccccc3)c(CCNC(=O)C3CC3)c2c1 | 0.3047 |  | 
4 | CCC(=O)NCCc1c(-c2ccccc2)[nH]c2ccc(OC)cc12 | 0.0466 |  | Response (Xenopus laevis [4]): Agonist
5 | O=C(NCCc1c(-c2ccccc2)[nH]c2ccccc12)C12C[C@H]3C[C@@H](C1)C[C@@H](C2)C3 | 1100 |  | Response (Xenopus laevis [6]): inactive
6 | COCC(CNC(C)=O)c1c(-c2ccccc2)n(C)c2ccccc12 (stereo not given) |  |  | Ki (Melatonin receptor [7]): 350 nM; Response (Xenopus laevis [1]): Antagonist
7 | CCCC(=O)NCCc1c(-c2ccccc2)[nH]c2ccc(OC)cc12 | 0.0558 |  | 
8 | O=C(NCCc1c(-c2ccccc2)[nH]c2ccccc12)C1CCCCC1 | 1550 |  | Response (Xenopus laevis [8]): Antagonist
9 | COc1ccc2[nH]c(-c3ccccc3)c(CCNC(=O)CCc3ccccc3)c2c1 | 263 | Agonist | 
10 | COc1ccc2[nH]c(-c3ccccc3)c(CCNC(C)=O)c2c1 | 0.0596 |  | Response (Xenopus laevis [4]): Agonist
11 | O=C(NCCc1c(-c2ccccc2)[nH]c2ccccc12)C1CCC1 | 565 |  | Response (Xenopus laevis [8]): Antagonist
12 | O=C(NCCc1c(-c2ccccc2)[nH]c2ccccc12)C1CCCC1 | 633 |  | Response (Xenopus laevis [8]): Antagonist
13 | CC(=O)NCCc1c(-c2ccccc2)n(C)c2ccccc12 | 63 | Agonist | 
14 | CC(=O)NCC(C)c1c(-c2ccccc2)n(C)c2ccccc12 (stereo not given) | 5.9 |  | Response (Xenopus laevis [9]): Agonist
15 | COc1ccc2[nH]c(-c3ccccc3)c(CCNC(=O)C3CCCCC3)c2c1 | 216 | Agonist | 
16 | O=C(CCc1ccccc1)NCCc1c(-c2ccccc2)[nH]c2ccccc12 | 7000 |  | Response (Xenopus laevis [6]): inactive
17 | CC(CNC(=O)C1CCC1)c1c(-c2ccccc2)n(C)c2ccccc12 (stereo not given) | 222 |  | Response (Xenopus laevis [1]): Antagonist
18 | COc1ccc2[nH]c(-c3ccccc3)c(CCNC(=O)C3CCCC3)c2c1 | 32.8 | Agonist | 
19 | COc1ccc2[nH]c(-c3ccccc3)c(CCNC(=O)C3CCC3)c2c1 | 2.7 | Agonist | 
20 | COCC(CNC(=O)C1CCC1)c1c(-c2ccccc2)n(C)c2ccccc12 (stereo not given) | 659 |  | Response (Xenopus laevis [1]): Antagonist
21 | COc1ccc2[nH]cc(CCNC(C)=O)c2c1 |  |  | Response (Xenopus laevis [4]): Agonist
22 | COc1ccc2[nH]c(-c3ccccc3)c(CCNC(=O)C34C[C@H]5C[C@@H](C3)C[C@@H](C4)C5)c2c1 | 1100 | Agonist | 

Second part, led by results:

Row | Ki (Melatonin receptor [2]) [nM] | SMILES | Response (Xenopus laevis [5]) | also measured
23 | 112 | CCCC(=O)NCCc1c(-c2ccccc2)[nH]c2ccccc12 | Agonist | 
24 | 100 | CC(=O)NCCc1c(-c2ccccc2)[nH]c2ccccc12 | Agonist | 
25 | 213 | O=C(NCCc1c(-c2ccccc2)[nH]c2ccccc12)C1CC1 |  | Response (Xenopus laevis [8]): Antagonist
26 | 55 | O=C(CBr)NCCc1c(-c2ccccc2)[nH]c2ccccc12 | Agonist | 
27 | 148 | O=C(NCCc1c(-c2ccccc2)[nH]c2ccccc12)C(F)(F)F | Agonist | 
28 | 70 | CCC(=O)NCCc1c(-c2ccccc2)[nH]c2ccccc12 | Agonist | 
29 | 410 | [N-]=[N+]=NCC(=O)NCCc1c(-c2ccccc2)[nH]c2ccccc12 | Agonist | 
30 | 6500 | O=C(NCCc1c(-c2ccccc2)[nH]c2ccccc12)C(F)(F)C(F)(F)F |  | Response (Xenopus laevis [10]): inactive
31 | 0.019 | COc1ccc2[nH]c(-c3ccccc3)c(CCNC(=O)C(F)(F)F)c2c1 |  | 
32 | 1900 | CC(Br)C(=O)NCCc1c(-c2ccccc2)[nH]c2ccccc12 (stereo not given) |  | Response (Xenopus laevis [11]): inactive
